melting point [°C] | Structure (SMILES)
153 | CCOC(=O)c1nnn(Cc2ccccc2)c1N
153 to 154 | Cn1c(C(=O)OCc2cc(C(F)(F)F)cc(C(F)(F)F)c2)c(-c2ccccc2)c2ccccc2c1=O
165 to 167 | CN1OCN=C1c1nn(-c2c(Cl)cc(C(F)(F)F)cc2Cl)c(N)c1S(=O)C(F)(F)F (configuration not stated)
120 to 122 | CCCc1cc2cc(O)ccc2c(Oc2ccc(/C=C/C(=O)O)cc2)c1-c1ccccc1
110 to 127 | OCCN(CCO)Cc1ccc(-c2cc3ncnc(Nc4ccc5[nH]ccc5c4)c3s2)cc1
167 to 170 | COc1ccc2c(c1)C(c1ccc(N)cc1)=NNC(=O)C2
149 to 150 | Cc1oc(-c2ccccc2)nc1COc1ccc(COc2ncccc2CC#N)cc1
155 to 157 | CC(=O)Nc1ccccc1Nc1ccc(C(=O)c2ccccc2)cc1
118 | N#Cc1ccc(C(=O)NCc2nn(-c3ccccc3Cl)c(-c3ccc(Cl)cc3)c2C#N)cc1
79 to 80 | CCCCCCCCCCCC(=O)c1cn(S(=O)(=O)c2ccc(C)cc2)c2ccccc12
220 | O=C(N[C@H]1CC[C@H](CCN2CCC(c3cccc4c3CCO4)CC2)CC1)c1ccccc1
130 | Cc1cc(CN2CCC(N(C)S(=O)(=O)c3ccc(Nc4nccc(Nc5ccc(F)c(C)c5)n4)cc3)CC2)[nH]n1
183 to 185 | CNc1nc(-c2cccc(-c3ccccc3)c2)c2cc(OC)c(OC)cc2n1
112 to 116 | O=C1c2ccccc2CN1C1CCN(C/C=C\CC2c3ccccc3-c3ccccc32)CC1
167 to 168 | Cc1c(NC(=O)c2ccc(OC[C@@H]3CCCO3)cc2F)ccc2cc(CNCC(C)(C)O)cnc12
112 to 114 | Cc1ccc2cccc(OCc3c(Cl)ccc(OCCNC(=O)CCc4ccccc4)c3Cl)c2n1
120 | CC(C)N(c1ccc(C(=O)Oc2ccccc2)c(Cl)c1)S(=O)(=O)c1ccccc1
191 to 193 | Oc1cccc2ccc(N3CCN(c4nc5ccc(C(F)(F)F)cc5[nH]4)CC3)nc12

melting point [°C] | Structure (SMILES)
153 to 154 | CCOC(=O)c1c(CCl)nc2cc(OC)c(OC)cc2c1-c1ccc(Cl)cc1
162 to 163 | O=C(CCc1nnc(Nc2ccccc2Cl)o1)NC1CCN(Cc2ccc(F)c(F)c2)CC1
124 to 126 | Cc1cc(Oc2c(Cl)cc(C(F)(F)F)cc2Cl)nn1C(=O)NCCO
200 to 204 | Cn1c(COc2ccc(CC3SC(=O)NC3=O)cc2)nc2ccc(Oc3ccc(NC(=O)c4ccccc4)cc3)cc21 (configuration not stated)
54 to 56 | CCOC(=O)C=C(C)c1ccc(-c2ccc(F)cc2F)cc1
199 to 202 | Nc1cnc(-c2ccccc2)nc1C(=O)O
142 | CCCC(=O)c1ccnc(Cl)c1NC(=O)c1ccccc1F
192 to 193 | O=C(Nc1ccc(F)nc1)N1CCN(c2ccnc(-c3cccc(F)c3F)n2)CC1
182 to 183 | Cc1ccc(C(=O)CNC(=O)c2ccc(C(F)(F)F)cc2)s1
232 to 237 | CNC(=O)c1ccccc1Nc1nc(Nc2ccc3c(c2)NCCNC3=O)ncc1Cl
335 to 336 | O=C(Nc1ccccn1)c1cnc2c(C(F)(F)F)cccc2c1O
128 to 132 | CCN1C(=O)C(C)(C)C(=O)N(C)c2cc(CN(CCn3ccc4oc(C)cc4c3=O)C(C)c3cccnc3)ccc21 (configuration not stated)
89 | CON(C)C(=O)CC(c1cccc(Br)c1)c1ccccc1C (configuration not stated)
187 to 188 | CCOC(=O)C1=C(C)NC(C)=C(C(=O)OCC)C1c1ccccc1/C=C/c1ccccc1
204 to 206 | O=C1Nc2ccccc2CN1C1CCN(Cc2ccccc2)CC1
251 | CC(=O)Nc1ccc2c(c1)C(c1cccn1-c1cccc(Cl)c1)C(=O)N2 (configuration not stated)
196 to 198 | CC(C)n1nc(-c2sc(C(=O)NCCN3CCOCC3)nc2-c2ccccc2)ccc1=O

The remaining lines, values behind:

Structure (SMILES) | melting point [°C]
CC1(C)CC(c2ncccn2)c2cc(C#N)ccc2O1 (configuration not stated) | 109 to 111
O=Cc1ccc(OC2CCCC2)c2oc3ccc([N+](=O)[O-])cc3c12 | 230 to 240
Cc1ccccc1NNC(N)=S | 158 to 160
CCC(=O)N(C)c1cccc(-c2ccnc3c(C(=O)c4ccco4)cnn23)c1 | 153 to 155
C=CCOc1ccccc1OCC(O)CNC1CCC(N2CCNC2=O)CC1 (configuration not stated) | 154 to 155
CCN(c1ccc(C(=O)Nc2cn3cc(Cl)ccc3n2)cc1)S(C)(=O)=O | 245 to 247
COc1ccc(S(=O)(=O)C(CC=C(C)C)(CC=C(C)C)C(=O)NO)cc1 | 93 to 96
Cc1cccc(C=Cc2ccncc2)n1 | 72 to 73
CCCCN1CCC(CNC(=O)c2ccc(N)n3cc(C(C)C)nc23)CC1 | 138
CCn1cc(C(=O)NCCc2ccncc2)c(=O)c2cnc(N3CCCC3)nc21 | 175 to 177
CNN(NC)C(=S)Oc1cccnc1C(=O)OC | 74 to 75
O=C(CCCCl)c1ccc2c(c1)Cc1cc(C(=O)CCCCl)ccc1O2 | 131 to 132
COc1ccncc1-c1cncc(OC2SCC(O)C(O)C2O)c1 (configuration not stated) | 154
CCc1cccc2c3c([nH]c12)C(CC)(CCOC(C)=O)OCC3 (configuration not stated) | 126 to 127
COc1ccc(CCN2CCC(n3ccc4ccc(CNC(C)=O)cc43)CC2)cc1 | 101 to 102
COc1cccc2c(=O)c3c(O)cc(OCC(S)CCl)cc3oc12 (configuration not stated) | 125
CC(=O)SCC(Cc1ccccc1)C(=O)NN1CCSCC1 (configuration not stated) | 138
CC(c1noc(C(F)F)n1)N1C(=O)C2(COc3cc4c(cc32)OCO4)c2c(Cl)cccc21 (configuration not stated) | 179 to 182
COC(=O)C=Cc1ccc(N2CCN(CCC3CCN(C(=O)OC(C)(C)C)CC3)C2=O)cc1 | 148 to 149

Structure (SMILES) | melting point [°C]
CN(C)C(=O)Cc1nnc2n1-c1ccc(Cl)cc1C(c1ccccc1)=NC2 | 204 to 206
CN(C)Cc1cccc(OCCCNc2nc(N)nn2C)c1 | 95 to 96.5
CSc1ccc(C(C)Nc2nc(N)nc(C(F)(F)F)n2)cc1 (configuration not stated) | 111
CC(C)(C)OCC(O)CN (configuration not stated) | 41 to 43
CCOC(=O)CCC(=O)c1ccc(Cl)c(S(N)(=O)=O)c1 | 94 to 95
CCCCCCCCNC(=O)NCc1ccc(O)c(OC)c1 | 90 to 92
C=C(C)C(=O)NCC(C)OC(=O)C(Br)(Br)Br (configuration not stated) | 104 to 105
C=C1C(O)C(CO)OC1n1cc(I)c(N)nc1=O (configuration not stated) | 159 to 161
CC(C)c1nn(-c2ccc(F)cn2)cc1CCCO | 78 to 79
CC(=O)N1CCc2ccc(S(=O)(=O)C(F)(F)F)cc2C1 | 199 to 200
COc1ccc(OC)c2c1C(=O)OC2=O | 265 to 268
CCn1c2ccc(I)cc2c2cc(I)ccc21 | 75 to 79
COc1cccc2c1CCC1CCC(=O)N(C)CC21 (configuration not stated) | 123 to 124
CCOC(=O)CC1(NC(C)=O)Cc2ccccc2C1 | 72 to 73
CC(C)Cn1cc2c(O)nc(O)nc2n1 | 328 to 330
CSc1ccc(C(=O)CBr)cc1F | 70 to 71
CC(C)(C)OC(=O)N[C@@H](Cc1cscn1)C(=O)O | 115
CCOC(=O)C(CC(=O)c1cccc(F)c1)(NC(C)=O)C(=O)OCC | 121 to 123
